Measurements: article PMC7307906, “Macrocyclic Modalities Combining Peptide Epitopes and Natural Product Fragments” (Journal of the American Chemical Society, 2020)
Several values for one entry are separate records, joined by “and”; a condition that tells them apart may be missing. Equal values may be shown once. Read-outs that look alike come from different tables or passages of the source.

[1] = the molecule shown is the open-chain precursor, other bond, 34-membered ring, CH(OMe)3/Et3N, then 6/LiBr/Et3N, DMF, THF, resin, 25.0 °C, with chain assembly
[2] = the molecule shown is the open-chain precursor, other bond, 28-membered ring, CH(OMe)3/Et3N, then 6/LiBr/Et3N, DMF, THF, resin, 25.0 °C, with chain assembly
[3] = the molecule shown is the open-chain precursor, other bond, 37-membered ring, CH(OMe)3/Et3N, then 6/LiBr/Et3N, DMF, THF, resin, 25.0 °C, with chain assembly
[4] = the molecule shown is the open-chain precursor, other bond, 31-membered ring, CH(OMe)3/Et3N, then 7/LiBr/Et3N, DMF, THF, resin, 25.0 °C, with chain assembly
[5] = the molecule shown is the open-chain precursor, other bond, 31-membered ring, CH(OMe)3/Et3N, then 6/LiBr/Et3N, DMF, THF, resin, 25.0 °C, with chain assembly
[6] = other bond, Fmoc removal, intramolecular imine, N-methylmaleimide 1,3-dipolar cycloaddition, resin, 4 steps
[7] = other bond, N-methylmaleimide (RP-04; imine cyclization/1,3-dipolar cycloaddition), resin, 4 steps
[8] = other bond, Fmoc removal (RP-03), imine cyclization/1,3-dipolar cycloaddition, N-methylmaleimide (RP-04), resin, 4 steps
[9] = other bond, Fmoc removal (RP-03), imine cyclization/N-methylmaleimide 1,3-dipolar cycloaddition (RP-04), resin, 3 steps
[10] = other bond, 34-membered ring, imine formation, then N-methylmaleimide cycloaddition (RP-04), resin, 4 steps

H-Gly-MePhe-Ala-His-Ala-Ser-Asn-Lys(4-formylbenzoyl)-Gly-resin?
ring closure, yield after HPLC [1]: 3%

H-Gly-MePhe-Arg-Ala-Asn-Lys(4-formylbenzoyl)-Gly-resin?
ring closure, yield after HPLC [2]: 14%

H-Gly-MePhe-Arg-Phe-Phe-Asn-Ala-Lys(4-formylbenzoyl)-Tyr-resin?
ring closure, yield after HPLC [1]: 3%
ring closure, yield after HPLC (the molecule shown is the open-chain precursor, other bond, 34-membered ring, CH(OMe)3/Et3N, then 7/LiBr/Et3N, DMF, THF, resin, 25.0 °C, with chain assembly): 2%

H-Gly-MePhe-Arg-Phe-Phe-Asn-Ala-Phe-Lys(4-formylbenzoyl)-Gly-resin?
ring closure, yield after HPLC [3]: 2%
ring closure, yield after HPLC (the molecule shown is the open-chain precursor, other bond, 37-membered ring, CH(OMe)3/Et3N, then 7/LiBr/Et3N, DMF, THF, resin, 25.0 °C, with chain assembly): 1%

H-Gly-MePhe-Arg-Phe-Phe-Asn-Ala-Phe-Lys(4-formylbenzoyl)-Tyr-resin?
ring closure, yield after HPLC [3]: 2%

H-Gly-MePhe-Arg-Phe-Phe-Asn-Lys(4-formylbenzoyl)-Gly-resin?
ring closure, yield after HPLC [4]: 6%

H-Gly-MePhe-Arg-Phe-Phe-Asn-Lys(4-formylbenzoyl)-Tyr-resin?
ring closure, yield after HPLC [5]: 3%

H-Gly-MePhe-Arg-dPhe-dPhe-Asn-Ala-Lys(4-formylbenzoyl)-Gly-resin?
ring closure, yield after HPLC (the molecule shown is the open-chain precursor, other bond, 34-membered ring, CH(OMe)3/Et3N, then 11/LiBr/Et3N, DMF, THF, resin, 25.0 °C, with chain assembly): 5%

H-Gly-MePhe-Arg-dPhe-dPhe-Asn-Ala-Lys(4-formylbenzoyl)-Tyr-resin?
ring closure, yield after HPLC [1]: 2%

H-Gly-MePhe-Arg-dPhe-dPhe-Asn-Ala-Phe-Lys(4-formylbenzoyl)-Gly-resin?
ring closure, yield after HPLC [3]: 4%

H-Gly-MePhe-Arg-dPhe-dPhe-Asn-Ala-Phe-Lys(4-formylbenzoyl)-Tyr-resin?
ring closure, yield after HPLC [3]: 2%
ring closure, yield after HPLC (the molecule shown is the open-chain precursor, other bond, 37-membered ring, CH(OMe)3/Et3N, then 11/LiBr/Et3N, DMF, THF, resin, 25.0 °C, with chain assembly): 1%

H-Gly-MePhe-Arg-dPhe-dPhe-Asn-Lys(4-formylbenzoyl)-Gly-resin?
ring closure, yield after HPLC [5]: 2%
ring closure, yield after HPLC [4]: 1%
ring closure, yield after HPLC (the molecule shown is the open-chain precursor, other bond, 31-membered ring, CH(OMe)3/Et3N, then 8/LiBr/Et3N, DMF, THF, resin, 25.0 °C, with chain assembly): 4%

H-Gly-MePhe-Arg-dPhe-dPhe-Asn-Lys(4-formylbenzoyl)-Tyr-resin?
ring closure, yield after HPLC [4]: 3%

H-Gly-MePhe-Asn-Asn-Asn-Lys(4-formylbenzoyl)-Gly-resin?
ring closure, yield after HPLC [2]: 12%

H-Gly-MePhe-Asp-Ile-Asn-Asn-Asn-Lys(4-formylbenzoyl)-Gly-resin
ring closure, yield after HPLC (the molecule shown is the open-chain precursor, other bond, 34-membered ring, CH(OMe)3/Et3N, then 12/LiBr/Et3N, DMF, THF, resin, 25.0 °C, with chain assembly): 3%

H-Gly-MePhe-Asp-Ile-Asn-Asn-Asn-Lys(4-formylbenzoyl)-Gly-resin?
ring closure, yield after HPLC (the molecule shown is the open-chain precursor, other bond, 34-membered ring, imine formation, then 5-benzylidene-1,3-dimethylbarbiturate (14) cycloaddition (RP-04), resin, 4 steps): 11%

H-Gly-MePhe-Asp-Ile-Asn-Asn-Asn-Val-Lys(4-formylbenzoyl)-Gly-resin?
ring closure, yield after HPLC [3]: 5%

H-Gly-MePhe-Glu-Glu-Lys-Asp-Ile-Asn-Asn-Asn-Val-Lys-Lys(4-formylbenzoyl)-Thr-resin?
ring closure, yield after HPLC (the molecule shown is the open-chain precursor, other bond, 49-membered ring, CH(OMe)3/Et3N, then 6/LiBr/Et3N, DMF, THF, resin, 25.0 °C, with chain assembly): 2%

H-Gly-MePhe-Gly-Leu-Gly-Phe-Lys(4-formylbenzoyl)-Phe-resin?
ring closure, yield after HPLC [4]: 5%
ring closure, yield after HPLC (the molecule shown is the open-chain precursor, other bond, 31-membered ring, CH(OMe)3/Et3N, then 11/LiBr/Et3N, DMF, THF, resin, 25.0 °C, with chain assembly): 4%

H-Gly-MePhe-Ile-Asn-Asn-Asn-Lys(4-formylbenzoyl)-Gly-resin?
ring closure, yield after HPLC [5]: 3%

H-Gly-MePhe-Leu-Lys-Pro-Ile-Lys(4-formylbenzoyl)-Gly-resin?
ring closure, yield after HPLC [5]: 8%
ring closure, yield after HPLC [4]: 5%
ring closure, yield after HPLC (the molecule shown is the open-chain precursor, other bond, 31-membered ring, CH(OMe)3/Et3N, then 13/LiBr/Et3N, DMF, THF, resin, 25.0 °C, with chain assembly): 4%

H-Gly-Phe-Asp-Ile-Asn-Asn-Asn-Lys(4-formylbenzoyl)-Gly-resin?
ring closure, yield after HPLC [1]: 2%

H-Gly-Pro-Asp-Ile-Asn-Asn-Asn-Lys(4-formylbenzoyl)-Gly-resin?
ring closure, yield after HPLC [1]: 3%

H-Gly-dMePhe-Asp-Ile-Asn-Asn-Asn-Lys(4-formylbenzoyl)-Gly-resin
ring closure, yield after HPLC [1]: 5%

Y[CRFFNAFC]Y
ring closure, yield after HPLC (disulfide bond, 26-membered ring, DMSO/AcOH, DMSO/AcOH/H2O, 1.56 mM, 25.0 °C, 3 steps): 25%

Y[CRffNAFC]Y
ring closure, yield after HPLC (disulfide bond, 26-membered ring, DMSO/AcOH, DMSO/AcOH/H2O, 1.55 mM, 25.0 °C, 3 steps): 17%

[4-F-Ph-pyrrolidinyl-spirooxindole-NMeFDINNNK]G
ring closure, yield after HPLC (other bond, Fmoc removal (RP-03), imine cyclization/1,3-dipolar cycloaddition, (E)-4-fluorobenzylidene-indolin-2-one, Cu/BINAP (RP-04), resin, 4 steps): 6%

[4-OMePh-pyrrolidinyl-spirooxindole-NMeFDINNNK]G
ring closure, yield after HPLC (other bond, Fmoc removal (RP-03), imine cyclization/1,3-dipolar cycloaddition, (E)-4-methoxybenzylidene-indolin-2-one (RP-04), resin, 4 steps): 3%

[N-3,4,5-OMePh-fused-di-pyrrolidine-NMeFRffNK]G
ring closure, yield after HPLC (other bond, Fmoc removal (RP-03), imine cyclization/N-(3,4,5-trimethoxyphenyl)maleimide 1,3-dipolar cycloaddition (RP-04), resin, 3 steps): 2%

[N-4-OMePh-fused-di-pyrrolidine-NMeFDINNNK]G
ring closure, yield after HPLC (other bond, Fmoc removal (RP-03), imine cyclization/1,3-dipolar cycloaddition, N-(4-methoxyphenyl)maleimide (RP-04), resin, 4 steps): 20%

[N-4-OMePh-fused-di-pyrrolidine-NMeFRffNK]G
ring closure, yield after HPLC (other bond, Fmoc removal (RP-03), imine cyclization/maleimide 8 1,3-dipolar cycloaddition (RP-04), resin, 3 steps): 4%

[N-Me-fused-di-pyrrolidine-FDINNNK]G
ring closure, yield after HPLC [6]: 2%

[N-Me-fused-di-pyrrolidine-NMeFAHASNK]G
ring closure, yield after HPLC [7]: 3%

[N-Me-fused-di-pyrrolidine-NMeFALFPGFK]G, A1
ring closure, yield after HPLC (other bond, 37-membered ring, CH(OMe)3/Et3N, then 6/LiBr/Et3N, DMF, THF, resin, 25.0 °C, 4 steps): 22%

[N-Me-fused-di-pyrrolidine-NMeFDINNNDab]G
ring closure, yield after HPLC (other bond, 32-membered ring, imine formation, then N-methylmaleimide cycloaddition (RP-04), resin, with chain assembly): 3%

[N-Me-fused-di-pyrrolidine-NMeFDINNNDap]G
ring closure, yield after HPLC (other bond, 31-membered ring, imine formation, then N-methylmaleimide cycloaddition (RP-04), resin, with chain assembly): 4%

[N-Me-fused-di-pyrrolidine-NMeFDINNNK]G
ring closure, yield after HPLC [8]: 24%

[N-Me-fused-di-pyrrolidine-NMeFDINNNOrn]G
ring closure, yield after HPLC (other bond, 33-membered ring, imine formation, then N-methylmaleimide cycloaddition (RP-04), resin, with chain assembly): 13%

[N-Me-fused-di-pyrrolidine-NMeFDINNNVK]G
ring closure, yield after HPLC [6]: 5%

[N-Me-fused-di-pyrrolidine-NMeFEEKDINNNVKK]T
ring closure, yield after HPLC [6]: 2%

[N-Me-fused-di-pyrrolidine-NMeFFLK]G, P1
ring closure, yield after HPLC (other bond, imine formation, then N-methylmaleimide cycloaddition (RP-04), resin, with chain assembly): 4%

[N-Me-fused-di-pyrrolidine-NMeFGLGFK]F
ring closure, yield after HPLC [7]: 5%

[N-Me-fused-di-pyrrolidine-NMeFINNNK]G
ring closure, yield after HPLC [6]: 3%

[N-Me-fused-di-pyrrolidine-NMeFNNNK]G
ring closure, yield after HPLC [7]: 21%

[N-Me-fused-di-pyrrolidine-NMeFRANK]G
ring closure, yield after HPLC [9]: 14%

[N-Me-fused-di-pyrrolidine-NMeFRFFNAK]Y
ring closure, yield after HPLC [7]: 3%

[N-Me-fused-di-pyrrolidine-NMeFRffK]Y, O1
ring closure, yield after HPLC (other bond, imine formation, then N-methylmaleimide cycloaddition (RP-04), resin, 4 steps): 6% and 7%

[N-Me-fused-di-pyrrolidine-NMeFRffNAFK]G
ring closure, yield after HPLC [8]: 4%

[N-Me-fused-di-pyrrolidine-NMeFRffNAK]Y
ring closure, yield after HPLC [7]: 2%

[N-Me-fused-di-pyrrolidine-NMeFRffNK]G
ring closure, yield after HPLC [9]: 3%

[N-Me-fused-di-pyrrolidine-NMeGDINNNK]G
ring closure, yield after HPLC (other bond, 34-membered ring, imine formation, then N-methylmaleimide cycloaddition (RP-04), resin, with chain assembly): 8%

[N-Me-fused-di-pyrrolidine-NMeLDINNNK]G
ring closure, yield after HPLC [10]: 3% and 20%

[N-Me-fused-di-pyrrolidine-NMeVDINNNK]G
ring closure, yield after HPLC [10]: 27% and 12%

[N-Me-fused-di-pyrrolidine-NMefDINNNK]G
ring closure, yield after HPLC [6]: 5%

[N-Ph-fused-di-pyrrolidine-NMeFALFPGFK]G, A2
ring closure, yield after HPLC (other bond, 37-membered ring, CH(OMe)3/Et3N, then 7/LiBr/Et3N, DMF, THF, resin, 25.0 °C, with chain assembly): 10%

[N-Ph-fused-di-pyrrolidine-NMeFDINNNDap]G
ring closure, yield after HPLC (other bond, Fmoc removal, intramolecular imine, N-phenylmaleimide 1,3-dipolar cycloaddition, resin, 4 steps): 2%

[N-Ph-fused-di-pyrrolidine-NMeFDINNNK]G
ring closure, yield after HPLC (other bond, Fmoc removal (RP-03), imine cyclization/1,3-dipolar cycloaddition, N-phenylmaleimide (RP-04), resin, 4 steps): 5%

[N-Ph-fused-di-pyrrolidine-NMeFRANK]G
ring closure, yield after HPLC (other bond, Fmoc removal (RP-03), imine cyclization/N-phenylmaleimide 1,3-dipolar cycloaddition (RP-04), resin, 3 steps): 3%
